Laboratory results from PubChem BioAssay (NCI).
“And” between values parts separate entries of the source, which are not always exact repeats. Equal entries are not always repeated.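 Compound exposure: 48 hours, 5 concentrations, 96-well plates. At the GI50, growth is halved. TGI marks complete inhibition of growth.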

Tests used:
Assay in all cases: NCI-60 cell line screen, 48 h
786-0 renal = test system: 786-0 renal
A498 renal = test system: A498 renal
A549 NSCLC = test system: A549 NSCLC
ACHN renal = test system: ACHN renal
BT-549 breast = test system: BT-549 breast
CAKI-1 renal = test system: CAKI-1 renal
CCRF-CEM leukemia = test system: CCRF-CEM leukemia
COLO 205 colon = test system: COLO 205 colon
DU-145 prostate = test system: DU-145 prostate
EKVX NSCLC = test system: EKVX NSCLC
HCC-2998 colon = test system: HCC-2998 colon
HCT-116 colon = test system: HCT-116 colon
HCT-15 colon = test system: HCT-15 colon
HL-60(TB) leukemia = test system: HL-60(TB) leukemia
HOP-62 NSCLC = test system: HOP-62 NSCLC
HOP-92 NSCLC = test system: HOP-92 NSCLC
HS 578T breast = test system: HS 578T breast
HT29 colon = test system: HT29 colon
IGROV1 ovarian = test system: IGROV1 ovarian
K-562 leukemia = test system: K-562 leukemia
KM12 colon = test system: KM12 colon
LOX IMVI melanoma = test system: LOX IMVI melanoma
M14 melanoma = test system: M14 melanoma
MALME-3M melanoma = test system: MALME-3M melanoma
MCF7 breast = test system: MCF7 breast
MDA-MB-231 breast = test system: MDA-MB-231 breast
MDA-MB-435 = test system: MDA-MB-435
MOLT-4 leukemia = test system: MOLT-4 leukemia
NCI-H226 lung = test system: NCI-H226 lung
NCI-H23 lung = test system: NCI-H23 lung
NCI-H460 lung = test system: NCI-H460 lung
NCI-H522 lung = test system: NCI-H522 lung
NCI/ADR-RES ovarian = test system: NCI/ADR-RES ovarian
OVCAR-3 ovarian = test system: OVCAR-3 ovarian
OVCAR-4 ovarian = test system: OVCAR-4 ovarian
OVCAR-5 ovarian = test system: OVCAR-5 ovarian
OVCAR-8 ovarian = test system: OVCAR-8 ovarian
PC-3 prostate = test system: PC-3 prostate
RPMI-8226 leukemia = test system: RPMI-8226 leukemia
RXF 393 renal = test system: RXF 393 renal
SF-268 CNS = test system: SF-268 CNS
SF-295 CNS = test system: SF-295 CNS
SF-539 CNS = test system: SF-539 CNS
SK-MEL-2 melanoma = test system: SK-MEL-2 melanoma
SK-MEL-28 melanoma = test system: SK-MEL-28 melanoma
SK-MEL-5 melanoma = test system: SK-MEL-5 melanoma
SK-OV-3 ovarian = test system: SK-OV-3 ovarian
SN12C renal = test system: SN12C renal
SNB-19 CNS = test system: SNB-19 CNS
SNB-75 CNS = test system: SNB-75 CNS
SR leukemia = test system: SR leukemia
SW-620 colon = test system: SW-620 colon
T-47D breast = test system: T-47D breast
TK-10 renal = test system: TK-10 renal
U251 CNS = test system: U251 CNS
UACC-257 melanoma = test system: UACC-257 melanoma
UACC-62 melanoma = test system: UACC-62 melanoma
UO-31 renal = test system: UO-31 renal

For `NC(=O)c1ccc(-c2nc(-c3ccc4c(c3)OCO4)c(-c3ccccn3)[nH]2)cc1`, the GI50 (786-0 renal) was > 25 µM and 36.4 µM, the TGI (786-0 renal) was over 100 µM and the GI50 (A498 renal) was > 25 µM and 27.2 µM. The TGI (A498 renal) was over 79.3 µM, the GI50 (A549 NSCLC) was > 25 µM and 27.7 µM and the TGI (A549 NSCLC) was over 100 µM. The GI50 (ACHN renal) was > 25 µM and 34 µM, the TGI (ACHN renal) was over 100 µM and the GI50 (BT-549 breast) was > 25 µM and 22.5 µM. The TGI (BT-549 breast) was over 96.7 µM, the GI50 (CAKI-1 renal) was > 25 µM and 22.7 µM and the TGI (CAKI-1 renal) was over 100 µM. For the same compound, the GI50 (CCRF-CEM leukemia) was > 25 µM and 38.4 µM, the TGI (CCRF-CEM leukemia) was over 100 µM and the GI50 (COLO 205 colon) was > 25 µM and 31.4 µM. The TGI (COLO 205 colon) was over 100 µM, the GI50 (DU-145 prostate) was > 25 µM and 38.7 µM and the TGI (DU-145 prostate) was over 100 µM. For the same compound, the GI50 (EKVX NSCLC) was > 25 µM and 44.9 µM, the TGI (EKVX NSCLC) was over 100 µM and the GI50 (HCC-2998 colon) was > 25 µM and 30.9 µM. The TGI (HCC-2998 colon) was over 100 µM, the GI50 (HCT-116 colon) was > 25 µM and 30.4 µM and the TGI (HCT-116 colon) was over 100 µM. The GI50 (HCT-15 colon) was > 25 µM and 23 µM, the TGI (HCT-15 colon) was > 25 µM and 63.6 µM and the GI50 (HL-60(TB) leukemia) was > 25 µM and 29.6 µM. The TGI (HL-60(TB) leukemia) was > 25 µM and 69.1 µM, the GI50 (HOP-62 NSCLC) was > 25 µM and 43 µM and the TGI (HOP-62 NSCLC) was over 100 µM. The GI50 (HOP-92 NSCLC) was > 25 µM and 11.4 µM, the TGI (HOP-92 NSCLC) was over 84.6 µM and the GI50 (HS 578T breast) was > 25 µM and 28.2 µM. For the same compound, the TGI (HS 578T breast) was over 100 µM, the GI50 (HT29 colon) was > 25 µM and 28.3 µM and the TGI (HT29 colon) was over 93.8 µM. For the same compound, the GI50 (IGROV1 ovarian) was > 25 µM and 34.2 µM, the TGI (IGROV1 ovarian) was over 100 µM and the GI50 (K-562 leukemia) was > 25 µM and 37.2 µM. For the same compound, the TGI (K-562 leukemia) was over 100 µM, the GI50 (KM12 colon) was > 25 µM and 35.7 µM and the TGI (KM12 colon) was over 100 µM. The GI50 (LOX IMVI melanoma) was > 25 µM and 26.9 µM, the TGI (LOX IMVI melanoma) was over 84.4 µM and the GI50 (M14 melanoma) was > 25 µM and 38.1 µM. For the same compound, the TGI (M14 melanoma) was over 100 µM, the GI50 (MALME-3M melanoma) was > 25 µM and 38.2 µM and the TGI (MALME-3M melanoma) was over 100 µM. For the same compound, the GI50 (MCF7 breast) was > 25 µM and 31.9 µM, the TGI (MCF7 breast) was over 83.8 µM and the GI50 (MDA-MB-231 breast) was 21.3 µM and 14.8 µM. The TGI (MDA-MB-231 breast) was > 25 µM and 59.1 µM, the GI50 (MDA-MB-435) was > 25 µM and 38.6 µM and the TGI (MDA-MB-435) was over 100 µM. The GI50 (MOLT-4 leukemia) was > 25 µM and 38.8 µM, the TGI (MOLT-4 leukemia) was over 100 µM and the GI50 (NCI-H226 lung) was > 25 µM and 22.2 µM. The TGI (NCI-H226 lung) was over 63.1 µM, the GI50 (NCI-H23 lung) was > 25 µM and 46.3 µM and the TGI (NCI-H23 lung) was over 100 µM. For the same compound, the GI50 (NCI-H460 lung) was > 25 µM and 23.3 µM, the TGI (NCI-H460 lung) was over 84.7 µM and the GI50 (NCI-H522 lung) was > 25 µM and 22.3 µM. The TGI (NCI-H522 lung) was > 25 µM and 72.5 µM, the GI50 (NCI/ADR-RES ovarian) was > 25 µM and 32.3 µM and the TGI (NCI/ADR-RES ovarian) was over 100 µM. The GI50 (OVCAR-3 ovarian) was > 25 µM and 35.3 µM, the TGI (OVCAR-3 ovarian) was over 100 µM and the GI50 (OVCAR-4 ovarian) was > 25 µM and 31.1 µM. The TGI (OVCAR-4 ovarian) was over 100 µM, the GI50 (OVCAR-5 ovarian) was > 25 µM and 32 µM and the TGI (OVCAR-5 ovarian) was over 100 µM. For the same compound, the GI50 (OVCAR-8 ovarian) was > 25 µM and 34.1 µM, the TGI (OVCAR-8 ovarian) was over 100 µM and the GI50 (PC-3 prostate) was > 25 µM and 43.2 µM. The TGI (PC-3 prostate) was over 100 µM, the GI50 (RPMI-8226 leukemia) was 24.3 µM and 20.7 µM and the TGI (RPMI-8226 leukemia) was over 69.6 µM. The GI50 (RXF 393 renal) was > 25 µM and 12.6 µM, the TGI (RXF 393 renal) was > 25 µM and 49.4 µM and the GI50 (SF-268 CNS) was > 25 µM and 50.7 µM. The TGI (SF-268 CNS) was over 100 µM, the GI50 (SF-295 CNS) was > 25 µM and 24.9 µM and the TGI (SF-295 CNS) was > 25 µM and 79.1 µM. The GI50 (SF-539 CNS) was > 25 µM and 49 µM, the TGI (SF-539 CNS) was over 100 µM and the GI50 (SK-MEL-2 melanoma) was > 25 µM and 35.8 µM. For the same compound, the TGI (SK-MEL-2 melanoma) was over 100 µM, the GI50 (SK-MEL-28 melanoma) was > 25 µM and 51.1 µM and the TGI (SK-MEL-28 melanoma) was over 100 µM. For the same compound, the GI50 (SK-MEL-5 melanoma) was > 25 µM and 15.1 µM, the TGI (SK-MEL-5 melanoma) was > 25 µM and 29.2 µM and the GI50 (SK-OV-3 ovarian) was > 25 µM and 39.5 µM. The TGI (SK-OV-3 ovarian) was over 100 µM, the GI50 (SN12C renal) was > 25 µM and 42.2 µM and the TGI (SN12C renal) was over 100 µM. The GI50 (SNB-19 CNS) was > 25 µM and 54.6 µM, the TGI (SNB-19 CNS) was over 100 µM and the GI50 (SNB-75 CNS) was > 16.5 µM and 21.3 µM. The TGI (SNB-75 CNS) was over 90.8 µM, the GI50 (SR leukemia) was > 25 µM and 20.4 µM and the TGI (SR leukemia) was over 100 µM. The GI50 (SW-620 colon) was > 25 µM and 65.6 µM, the TGI (SW-620 colon) was over 100 µM and the GI50 (T-47D breast) was > 25 µM and 21.8 µM. For the same compound, the TGI (T-47D breast) was over 100 µM, the GI50 (TK-10 renal) was > 25 µM and 47.7 µM and the TGI (TK-10 renal) was over 100 µM. The GI50 (U251 CNS) was > 25 µM and 44.5 µM, the TGI (U251 CNS) was over 100 µM and the GI50 (UACC-257 melanoma) was over 64.3 µM. For the same compound, the TGI (UACC-257 melanoma) was over 100 µM, the GI50 (UACC-62 melanoma) was > 25 µM and 35.1 µM and the TGI (UACC-62 melanoma) was over 100 µM. The GI50 (UO-31 renal) was > 25 µM and 32.3 µM and the TGI (UO-31 renal) was over 100 µM.
